As a reminder, the inhibition is the drop in the measured response relative to a control, in per cent. For orientation: Ki means the equilibrium dissociation constant of an inhibitor or competing ligand from its target. The term melting point denotes the temperature of the solid-liquid transition. A word on the IC50: it is the point on the concentration scale where inhibition reaches its midpoint. A high value points to a need for much substance.

Read-outs that look alike come from different tables or passages of the source.

Series [1] has as its system formaldehyde induced nociceptive behaviour. Nature of the series: Formaldehyde test in mice, second (late) phase. It counts as in vivo, mouse. The settings on record: mouse, read-out: inhibition formaldehyde test (n = 10); for inhibition in vivo at 0.3 mg/kg: 0.3 mg/kg body weight po.
Series [2] relates to capsaicin induced hypothermie. The series can be described thus: Hypothermie assay in the mouse (capsaicin induced hypothermie). It counts as in vivo. The settings on record: as printed in this column, read-out: inhibition hypothermie (n = 5).
Series [3] concerns the target T1, vanilloid receptor (VR1) (Homo sapiens, UniProt Q8NER1).
T1 construct: expressed in transfected cells; host or cells: CHO K1 cells (ECACC), stably transfected
The series can be described thus: FLIPR Ca2+ influx assay on CHO K1 cells transfected with the VR1 gene (pharmacological method II). It counts as cell-based.

Series [4] addresses T2, vanilloid receptor 1 (VR1/TRPV1) of the rat species (Rattus norvegicus, UniProt O35433).
T2 construct: The spinal column is removed from decapitated rats; from tissue; host or cells: primary cells dissociated from rat dorsal root ganglia
The series can be described thus: FLIPR Ca2+ influx assay on rat dorsal root ganglia cells (pharmacological method I). The class given is cell-based. The gist of the method:
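Primary rat dorsal root ganglion cells loaded with 2 μM Fluo-4, Ca2+ influx read on FLIPR as peak fluorescence. Triplicates, at least 3 independent experiments.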

For a further series, the target named is VR1/TRPV1 receptor (Homo sapiens, UniProt Q8NER1). The series can be described thus: IC50 (human) after pH stimulus. It counts as cell-based.
The subject of series [5] is cold allodynia after chronic constriction injury. Nature of the series: Neuropathic pain in mice, Bennet model (chronic constriction injury, cold allodynia). The class given is in vivo. The settings on record: mouse. The source says:
VI. Neuropathic Pain in Mice
The efficacy of compounds of general formula I in the treatment of neuropathic pain is investigated by using the Bennet modell (chronic constriction injury; Bennett and Xie, 1988, Pain 33: 87-107.
NMRI mice (weight 16 to 18 g) under ketavet-rompun anaesthesia are supplied with three loose ligatures of the right nervus ischiaticus. The animals develop an oversensitivity to cold at the position of the pad that is innervated by the injured nerve which—after a recovery period of one week—is quantified over a period of three weeks by using a metal plate that is cooled to 4° C. (cold allodynia). The animals are observed for a period of 2 minutes on this plate and the number of brisk withdrawal reactions of the injured nerve is counted. […] The group size is n=10, the stastical significance of efficacy against allodynia (*=p<0.05) is determined by analysis of variance with repeated measurements and post hoc analysis with Bonferroni adjustment.

The target in series [6] is T1, vanilloid receptor (VR1). Nature of the series: FLIPR Ca2+ influx assay on CHO K1 cells transfected with the VR1 gene (pharmacological method II). The settings on record: CHO-K1; @ 25 μM; read-out: inhibition in percent, Ki (human) Cap. It counts as cell-based.
Series [7] relates to capsaicin induced hypothermie. Nature of the series: Hypothermie assay in the mouse (capsaicin induced hypothermie). The settings on record: 0.3 mg/kg body weight po; mouse; read-out: inhibition hypothermie (n = 5). It counts as in vivo.
The mark [8] stands for this setting: Table 2, displacement of capsaicin (100 nM), Cheng-Prusoff, read-out: Ki (human).
The mark [9] stands for this setting: Table 2, displacement of capsaicin (100 nM), Cheng-Prusoff, read-out: Ki (rat).
[10] abbreviates: table 4, capsaicin, read-out: Ki (human) Cap.
Setting [11] is: table 4, capsaicin, read-out: Ki (rat) Cap.

T1 sequence (Q8NER1 whole entry): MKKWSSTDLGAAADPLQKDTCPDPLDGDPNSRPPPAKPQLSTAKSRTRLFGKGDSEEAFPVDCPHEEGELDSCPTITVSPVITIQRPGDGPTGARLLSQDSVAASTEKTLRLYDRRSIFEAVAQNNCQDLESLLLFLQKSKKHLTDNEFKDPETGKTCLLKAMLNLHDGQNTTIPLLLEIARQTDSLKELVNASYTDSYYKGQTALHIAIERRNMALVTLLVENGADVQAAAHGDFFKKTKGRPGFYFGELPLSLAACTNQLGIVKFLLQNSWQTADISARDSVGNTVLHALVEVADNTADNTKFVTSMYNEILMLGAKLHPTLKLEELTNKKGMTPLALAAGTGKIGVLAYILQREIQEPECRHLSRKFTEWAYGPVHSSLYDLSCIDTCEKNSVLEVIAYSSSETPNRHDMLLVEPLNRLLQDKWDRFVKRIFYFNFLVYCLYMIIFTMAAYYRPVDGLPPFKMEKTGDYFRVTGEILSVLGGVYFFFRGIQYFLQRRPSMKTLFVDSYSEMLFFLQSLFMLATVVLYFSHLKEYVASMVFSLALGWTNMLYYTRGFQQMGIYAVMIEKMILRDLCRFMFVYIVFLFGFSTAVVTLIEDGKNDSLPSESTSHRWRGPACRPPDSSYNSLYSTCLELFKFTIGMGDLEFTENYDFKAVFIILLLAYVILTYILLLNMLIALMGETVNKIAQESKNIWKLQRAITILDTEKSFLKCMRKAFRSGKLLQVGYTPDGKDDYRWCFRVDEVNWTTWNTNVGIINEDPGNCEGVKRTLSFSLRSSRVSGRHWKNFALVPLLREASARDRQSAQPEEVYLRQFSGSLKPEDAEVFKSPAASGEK
Chain of VR1/TRPV1 receptor (Q8NER1 whole entry): as above
T2 sequence (O35433 whole entry): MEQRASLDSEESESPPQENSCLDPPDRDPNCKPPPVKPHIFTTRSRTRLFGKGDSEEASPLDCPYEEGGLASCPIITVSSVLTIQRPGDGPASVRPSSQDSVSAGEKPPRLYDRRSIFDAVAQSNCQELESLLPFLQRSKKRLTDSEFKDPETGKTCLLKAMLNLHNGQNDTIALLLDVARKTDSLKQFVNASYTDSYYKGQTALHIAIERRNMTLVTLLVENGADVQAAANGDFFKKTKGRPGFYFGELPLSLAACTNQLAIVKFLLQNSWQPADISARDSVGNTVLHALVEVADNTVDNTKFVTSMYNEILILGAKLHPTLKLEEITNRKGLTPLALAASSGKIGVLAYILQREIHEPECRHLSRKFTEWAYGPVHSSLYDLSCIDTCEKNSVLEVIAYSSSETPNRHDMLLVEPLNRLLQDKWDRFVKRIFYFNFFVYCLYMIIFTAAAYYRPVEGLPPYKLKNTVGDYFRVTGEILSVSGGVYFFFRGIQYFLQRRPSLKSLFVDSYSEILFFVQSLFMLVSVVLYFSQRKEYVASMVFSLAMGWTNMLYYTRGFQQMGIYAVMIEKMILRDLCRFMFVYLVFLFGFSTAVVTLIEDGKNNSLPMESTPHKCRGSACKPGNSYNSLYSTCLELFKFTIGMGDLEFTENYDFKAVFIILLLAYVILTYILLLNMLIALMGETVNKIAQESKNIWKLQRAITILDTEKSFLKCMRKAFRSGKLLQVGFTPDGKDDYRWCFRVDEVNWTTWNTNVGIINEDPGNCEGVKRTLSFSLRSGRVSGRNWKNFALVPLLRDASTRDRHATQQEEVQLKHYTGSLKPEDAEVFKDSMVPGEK

`CC(C(=O)NCc1ccc(C(C)(C)C)cc1OCC(C)(C)C)c1ccc(NS(C)(=O)=O)c(F)c1` (centres unmarked) [Compound 152]: the inhibition in vivo at 1 mg/kg in [1] (1 mg/kg body weight po) was 24%. For the same molecule, the inhibition at 1 µM in series [2] (@ 1 μM) turned out to be 45%.

For the molecule `Cc1nc(C(F)(F)F)ccc1CNC(=O)C(C)c1ccc(NS(C)(=O)=O)c(F)c1` (centres unmarked) [Example 1, 2-(3-fluoro-4-(methylsulfonamido)phenyl)-N-((2-methyl-6-(trifluoromethyl)pyridin-3-yl)methyl)propanamide], the melting point fell in the range of 149 to 152 °C. On vanilloid receptor (VR1) [3] (setting [8]), the Ki came to 387 nM. Moreover, the Ki in [4] (setting [9]) is 684 nM.

As to `CC(C(=O)NCc1ccc(C(F)(F)F)nc1N1CCCCC1)c1ccc(NS(C)(=O)=O)c(F)c1` (centres unmarked) [Example 2, 2-(3-fluoro-4-(methylsulfonamido)phenyl)-N-((2-(piperidin-1-yl)-6-(trifluoromethyl)pyridin-3-yl)methyl)propanamide], the melting point is 75 to 79 °C. Also, the IC50 at VR1/TRPV1 receptor (Table 2) came to 218 nM. Besides, the Ki on vanilloid receptor (VR1) [3] (setting [8]) was 0.4 nM. In addition, the Ki in series [4] (setting [9]) was determined as 3.5 nM.

As to `CC(C(=O)NCc1ccc(C(F)(F)F)cc1N1CCCCC1)c1ccc(NS(C)(=O)=O)c(F)c1` (centres unmarked) [Example 3], the melting point is 126 to 127 °C. The half-inhibitory concentration (IC50) against VR1/TRPV1 receptor (Table 2) was determined as 135 nM. The Ki at vanilloid receptor (VR1) [3] (setting [8]) was determined as 1.7 nM. For the same molecule, the Ki in series [4] (setting [9]) was 2.6 nM.

Molecule `C[C@H](C(=O)NCc1ccc(C(F)(F)F)nc1N1CCCCC1)c1ccc(NS(C)(=O)=O)c(F)c1` [Example 10, (S)-2-(3-fluoro-4-(methylsulfonamido)phenyl)-N-((2-(piperidin-1-yl)-6-(trifluoromethyl)pyridin-3-yl)methyl)propanamide] came in with a melting point of 75 to 79 °C. The molecule further displayed an IC50 at VR1/TRPV1 receptor (Table 2) of 64 nM. The Ki on vanilloid receptor (VR1) [3] (setting [8]) came to 0.3 nM. Also, the Ki in [4] (setting [9]) was determined as 1.1 nM.

Molecule `CCCCCCOc1nc(C(F)(F)F)ccc1CNC(=O)C(C)c1ccc(NS(C)(=O)=O)c(F)c1` (centres unmarked) [Example 91, 2-(3-fluoro-4-methylsulfonamido-phenyl)-N-(2-hexyloxy-6-trifluoromethyl-pyridin-3-ylmethyl)-propionamide] displayed an IC50 on VR1/TRPV1 receptor (table 4) of 29.9 nM. The Ki amounted to 0.5 nM at vanilloid receptor (VR1) [3] (setting [10]) and 0.5 nM in [4] (Ki (rat) Cap., table 4, capsaicin). Besides, the “inhibition Bennet model (n = 10)” value in [5] (0.1 mg/kg body weight po) was 0.1 po 30%.

Consider `CC(C(=O)NCc1ccc(C(F)(F)F)nc1N1CCC(Cc2ccccc2)CC1)c1ccc(NS(C)(=O)=O)c(F)c1` (centres unmarked) [Example 104, N-(4-benzyl-6′-trifluoromethyl-3,4,5,6-tetrahydro-2H-[1,2′]bipyridinyl-3′-ylmethyl)-2-(3-fluoro-4-methylsulfonamido-phenyl)-propionamide], for which the IC50 on VR1/TRPV1 receptor (table 4) was 40 nM. Also, the Ki (on vanilloid receptor (VR1) [3] (setting [10]); in series [4] (setting [11])) was 0.2 nM each time. In addition, the “inhibition Bennet model (n = 10)” value in series [5] (0.0001 mg/kg body weight po) is listed as 0.0001 po 20%.

For the molecule `CC(C(=O)NCc1ccc(C(C)(C)C)cc1OCC(C)(C)C)c1ccc(NS(C)(=O)=O)c(F)c1` (centres unmarked) [Example 152, N-[4-tert-butyl-2-(2,2-dimethyl-propoxy)-benzyl]-2-(3-fluoro-4-methylsulfonamido-phenyl)-propionamide], in series [1], the inhibition in vivo at 0.3 mg/kg worked out at 33%. The results for the inhibitory constant (Ki) (on vanilloid receptor (VR1) [3] (setting [10]); in series [4] (setting [11])) were 3.8 nM and 2.2 nM, respectively. Further, the inhibition at 10 µM in series [2] (@ 10 μM) amounted to 63%.

Turning to `CC(C(=O)NCc1ccc(C(F)(F)F)nc1N1CCC(N2CCCC2)CC1)c1ccc(NS(C)(=O)=O)c(F)c1` (centres unmarked) [Example 165, 2-(3-fluoro-4-methylsulfonamido-phenyl)-N-(4-pyrrolidin-1-yl-6′-trifluoromethyl-3,4,5,6-tetrahydro-2H-[1,2′]bipyridinyl-3′-ylmethyl)-propionamide], the inhibition at 10 µM on VR1/TRPV1 receptor (@ 10 μM, read-out: inhibition in percent, IC50 (human) after pH stimulus) was found to be 28%. The inhibition at 25 µM at VR1/TRPV1 receptor (@ 25 μM, read-out: inhibition in percent, IC50 (human) after pH stimulus) was determined as 40%; on vanilloid receptor (VR1) [6], 76%; in [4] (@ 25 μM, read-out: inhibition in percent, Ki (rat) Cap.), 82%. In addition, the inhibition in vivo at 0.3 mg/kg was 29% in [1] and 41% in [7].

Source of the values: patent publication US8710233B2 (Gruenenthal GmbH, priority 2005, dated 2014).
